This note sets out measurements from patent US8697391B2, “Method of determining cell number or viability using hydroxyethyldisulfide” (priority 2009, dated 2014).

In data set [1] the test system is human HCT116 cells.
For data set [2], the system named is human HCT116 cells. Type of data set: cell-based.
In another data set the test system is human cells. It counts as cell-based.
In another data set the test system is live cells. Briefly: Toxicity of HEDS to live cells. As to conditions: live cells reducing HEDS to mercaptoethanol. It counts as cell-based. The text has this:
In a particular embodiment, the assay of the instant invention use hydroxyethyldisulfide (HEDS), a unique non-toxic disulfide, to measure glucose dependent metabolic activity of live cells in vitro. The survival of cells is directly proportional to the conversion of HEDS into mercaptoethanol (ME) by metabolically active live cells. Dead cells fail to convert HEDS into mercaptoethanol. Accordingly, the assays of the instant invention generally encompass contacting cells (e.g., live cells) with HEDS and then monitoring or measuring the amount of extracellular ME. The amount of ME produced from HEDS can be measured in the extracellular medium since ME is extruded out quickly into the extracellular medium. Extracellular ME may be measured, for example, by a dithiobiznitrobenzoic acid (DTNB) assay or High Performance Liquid Chromatography/Electrochemical Detection (HPLC/EC): The cells of the assay may be any cell that produces NADPH, particularly mammalian cells and yeast. The percentage of live cells may be determined by the amount of ME produced.
The ME produced inside the cells is extruded into the extracellular medium. This conversion mediated by the antioxidant system can be measured in the extracellular medium without the need for cellular extract. HPLC electrochemical detector was used to quantify the conversion of HEDS into mercaptoethanol in mammalian cells in tissue culture. […]

Regarding arsenite, the “survival of cells (arsenite toxicity)” value with human HCT116 cells [1] was “concentration dependent decrease in the survival”. In the data set with human HCT116 cells [2], the HEDS conversion entry is listed as “concentration dependent decrease in HEDS conversion”. The “decrease of the ME peak (HEDS conversion)” value in the data set on human cells was around 70%.
In the case of `OCCSSCCO` [HEDS, hydroxyethyldisulfide], in the data set with live cells, the “toxic effect on cells” value was “no toxic effect on cells”.
